Test results taken from patent US20200347347A1, “COMPOSITIONS AND METHODS FOR IMPROVED GAMETE VIABILITY AND FUNCTION” (Premium Genetics [UK] Ltd., priority 2017, published 2020).

How the values were obtained:
[1] = system: sperm cells; experiment: Progressive motility of extended ejaculate stored at 19° C. (CASA); format: cell-based, bovine; conditions: SVFEM supplemented with 3 mM NaF normalized to 0 mM NaF; 24 hours; N=8
Protocol: Progressive motile % was determined using a CASA system. N=10 paired ejaculates.
Ejaculate extension and Incoming Quality Assessment: The volume of the ejaculate was determined using a serological pipette and evenly divided into two tubes. Immediately, within 15 minutes, the SVFEM extender was added in a 1:1 ratio to the SVFEM extended half of the split ejaculate. […] On arrival, GTLS antibiotic solution was added at a 2% v/v of ejaculate.
Within 45 minutes of initial ejaculate collection, the cell concentration and incoming motility parameters were collected. Concentration was determined using a Nucleocounter SP-100™ with Reagent S100 and SP100 cassettes (ChemoMetec Allerod, Denmark). Motility characteristics were calculated by diluting 10 μL sample in 990 μL motility diluent and reading 7 frames each in 2 chambers of Leja 4 chamber capillary slides with a known chamber depth on a Hamilton Thorne IVOS II using HTCasa II software at 60 Hz frame capture speed in a 37° C. enclosed stage with a Zeiss 1× objective.

[2] = system: sperm cells; experiment: Outgoing quality control: progressively motile cells per straw after freeze-thaw; format: cell-based, bovine; conditions: NaF 0-6 mM in SVFEM
Protocol: After 90 minutes of equilibration at 4° C. the samples were cryoprotected by adding TRIS B (which contains glycerol) to a final concentration of 20% v/v of sample in 3 separate additions, 15 minutes apart. The concentration of progressively motile cells was determined using the Hamilton Thorne IVOS II with HTCasa Animal Breeders II software set to the same capture settings listed above, but with a Xenon light source and an Olympus 10× UplanSApo objective. The cryoprotected sample was diluted to final live, motile cell concentration, 2.5 M/mL, in Packaging Extender and placed in Mini Straws which hold 0.25 mL volume (IMV technologies, Maple Grove, Minn. USA) using an MX4 straw filling and sealing machine (IMV technologies, Maple Grove, Minn. USA). Filled straws were rapidly cooled using a freeze tunnel before storage in liquid nitrogen.
Outgoing Quality Control Assessment: To assess the number of motile cells that survived the freezing process a single straw is thawed in a 37° C. water bath for 45 seconds. The straw is then plunged into a pre-warmed Eppendorf tube. The sample is then gently vortexed 10 seconds to homogenize the sample. After which 20 μLs of sample is added to 20 μLs of QC diluent, gently vortexed for 5 seconds, and read on the CASA fluorescent settings described above.

[3] = system: sperm cells; experiment: Motility of semen samples after 24-hour storage in media (Examples 4-7, 10, 11); format: cell-based, Angus bull; conditions: Example 10; samples stored for 24 hours
Protocol: Semen sample creation: The media of Example 1 is mixed with semen in a 1:1 volume ratio. Optimal performance is seen when the media was warmed to 37° C. prior to mixing with Angus bull semen, and when the media is added to semen between 10 and 30 minutes post-ejaculation. The media remains effective, however, when mixed with cells 1 hour after ejaculation. After the addition of the media, cells are stored at 19° C. […] In FIG. 33 p=0.017, in a paired t-test. […] Semen samples from Angus bulls (n=4) were taken and tested at the collection, then after storing in the media of Example 1 (SVFEM) for 24 hours. […] Another test was performed to compare samples after 24-hour storage. Semen samples from Angus bulls (n=10) were taken and combined with media. Samples using the inventive media SVFEM were compared to control samples using conventional media. Samples were analyzed to determine whether motility of cells was lost due to storage.

`[F-].[Na+]` [NaF, sodium fluoride] was tested, and the “fall of % progressive motile cells after staining below paired SVFEM group” value [1] was “at least 20%” and the “number of motile cells which survive a freeze/thaw after 24 hours' extension” value [2] was “improved efficacy”.

With phosphatidylserine [PS] the “effect of eliminating the ingredient from SVFEM on motility” value [3] was “drop in motility”.
